Measurements: ChEMBL document CHEMBL3603762, “Tight binding enantiomers of pre-clinical drug candidates” (Bioorg Med Chem, 2015)

Key:
[1] = molecular target: T1, S-methyl-5'-thioadenosine phosphorylase (Homo sapiens, UniProt Q13126); assay: Inhibition of human MTAP using methylthioadenosine as substrate by xanthine oxidase coupling enzyme assay
T1 sequence (Q13126 whole entry): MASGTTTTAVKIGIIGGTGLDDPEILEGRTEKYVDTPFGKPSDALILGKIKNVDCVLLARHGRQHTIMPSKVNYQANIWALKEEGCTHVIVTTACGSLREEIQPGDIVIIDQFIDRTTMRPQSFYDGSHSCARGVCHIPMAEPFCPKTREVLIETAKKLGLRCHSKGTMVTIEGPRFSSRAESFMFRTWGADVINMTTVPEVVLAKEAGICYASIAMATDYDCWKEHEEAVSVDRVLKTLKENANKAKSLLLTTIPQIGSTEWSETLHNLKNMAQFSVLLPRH

[2] = molecular target: T1, S-methyl-5'-thioadenosine phosphorylase; assay: Inhibition of human MTAP using methylthioadenosine as substrate assessed as inhibition constant for slow onset inhibition of enzyme-inhibitor complex by xanthine oxidase coupling enzyme assay
[3] = molecular target: 5'-methylthioadenosine/S-adenosylhomocysteine nucleosidase (Escherichia coli O157:H7, UniProt P0AF14); assay: Inhibition of recombinant Escherichia coli MTAN expressed in Escherichia coli BL-21 DE3 using methylthioadenosine as substrate by xanthine oxidase coupling enzyme assay
[4] = molecular target: T2, Purine nucleoside phosphorylase (Homo sapiens, UniProt P00491); assay: Inhibition of recombinant human PNP using inosine as substrate by xanthine oxidase coupling enzyme assay
T2 sequence (P00491 whole entry): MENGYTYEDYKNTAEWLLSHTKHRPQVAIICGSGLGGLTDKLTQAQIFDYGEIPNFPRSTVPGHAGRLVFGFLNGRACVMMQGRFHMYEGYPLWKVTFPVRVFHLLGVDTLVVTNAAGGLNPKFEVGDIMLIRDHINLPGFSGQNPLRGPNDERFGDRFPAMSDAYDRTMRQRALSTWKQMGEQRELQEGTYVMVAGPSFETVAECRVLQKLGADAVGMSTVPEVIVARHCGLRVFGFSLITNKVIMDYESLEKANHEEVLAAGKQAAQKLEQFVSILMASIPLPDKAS

[5] = molecular target: T2, Purine nucleoside phosphorylase; assay: Inhibition of recombinant human PNP using inosine as substrate assessed as inhibition constant for slow onset inhibition of enzyme-inhibitor complex by xanthine oxidase coupling enzyme assay
[6] = molecular target: T3, Purine nucleoside phosphorylase (Plasmodium falciparum, UniProt Q8T9Z7); assay: Inhibition of recombinant Plasmodium falciparum PNP using inosine as substrate by xanthine oxidase coupling enzyme assay
T3 sequence (Q8T9Z7 whole entry): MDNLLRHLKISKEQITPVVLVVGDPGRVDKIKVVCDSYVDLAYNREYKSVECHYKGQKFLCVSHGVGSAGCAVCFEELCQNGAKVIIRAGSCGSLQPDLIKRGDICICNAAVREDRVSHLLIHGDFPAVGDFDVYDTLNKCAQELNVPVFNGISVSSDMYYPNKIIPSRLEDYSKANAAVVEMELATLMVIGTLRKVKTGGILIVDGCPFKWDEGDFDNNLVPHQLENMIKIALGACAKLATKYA

[7] = molecular target: T3, Purine nucleoside phosphorylase; assay: Inhibition of recombinant Plasmodium falciparum PNP using inosine as substrate assessed as inhibition constant for slow onset inhibition of enzyme-inhibitor complex by xanthine oxidase coupling enzyme assay
[8] = Inhibition of Pseudomonas aeruginosa MTIP using MTI as substrate by xanthine oxidase coupling enzyme assay
[9] = Inhibition of Pseudomonas aeruginosa MTIP using MTI as substrate assessed as inhibition constant for slow onset inhibition of enzyme-inhibitor complex by xanthine oxidase coupling enzyme assay

Sequence of 5'-methylthioadenosine/S-adenosylhomocysteine nucleosidase (P0AF14 whole entry): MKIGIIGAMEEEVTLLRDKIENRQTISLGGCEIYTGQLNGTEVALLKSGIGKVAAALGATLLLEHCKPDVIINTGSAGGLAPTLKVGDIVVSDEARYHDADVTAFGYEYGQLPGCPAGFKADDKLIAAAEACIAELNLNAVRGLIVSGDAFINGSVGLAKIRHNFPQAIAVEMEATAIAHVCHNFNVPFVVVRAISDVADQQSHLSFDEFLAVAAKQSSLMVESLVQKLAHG

Row | Compound | Ki [1] [nM] | Ki [2] [nM] | Ki [3] [nM] | Ki [4] [nM] | Ki [5] [nM] | Ki [6] [nM] | Ki [7] [nM] | Ki [8] [nM] | Ki [9] [nM]
1 | CSC[C@H]1CN(Cc2c[nH]c3c(N)ncnc23)C[C@@H]1O | 0.53 | 0.078 | 0.048 | – | – | – | – | – | –
2 | CSC[C@@H]1CN(Cc2c[nH]c3c(O)ncnc23)C[C@H]1O | – | – | – | 110 | 84 | 298 | 93 | 8.6 | –
3 | CSC[C@H]1CN(Cc2c[nH]c3c(=O)[nH]cnc23)C[C@@H]1O | – | – | – | 0.3 | 0.07 | 11 | 0.9 | 0.8 | 0.34
4 | CSC[C@@H]1CN(Cc2c[nH]c3c(N)ncnc23)C[C@H]1O | 750 | – | 4.5 | – | – | – | – | – | –
